Laboratory results as given in ChEMBL document CHEMBL1201862, “PubChem BioAssay data set” (2004).
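96-well plates; 48 h exposure; 5 concentrations. Endpoints by linear interpolation between flanking doses. Not reached: highest tested concentration assigned. GI50 marks 50% less growth.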 Activity calls are given as the source filed them. No stated cut-off is given here; in the data, active = GI50 up to about 1.1 µM and inactive = higher.

Assays:
Assay in all cases: DTP human tumour cell line panel, 48 h
KM-20L2 = tested on: KM-20L2
DMS-273 = tested on: DMS-273
M19-MEL = tested on: M19-MEL
HOP-18 = tested on: HOP-18
SNB-78 = tested on: SNB-78
LXFL 529 = tested on: LXFL 529
DLD-1 = tested on: DLD-1
DMS-114 = tested on: DMS-114
RXF 631 = tested on: RXF 631

SMILES: Cc1nn(C)cc1P(=S)(c1ccccc1)c1ccccc1
- GI50 (KM-20L2): > 100 µM (inactive)
- GI50 (DMS-273): 31.6 µM (inactive)
- GI50 (M19-MEL): 59.3 µM (inactive)
- GI50 (HOP-18): > 100 µM (inactive)
- GI50 (SNB-78): 51.2 µM (inactive)
- GI50 (LXFL 529): 51.3 µM (inactive)
- GI50 (DLD-1): 51.4 µM (inactive)
- GI50 (DMS-114): 30.9 µM (inactive)

SMILES: O=C1OC(c2ccccc2)=N/C1=C/C=C/c1ccco1
- GI50 (KM-20L2): > 100 µM (inactive)
- GI50 (M19-MEL): > 100 µM (inactive)
- GI50 (RXF 631): > 100 µM (inactive)
- GI50 (SNB-78): > 100 µM (inactive)
- GI50 (LXFL 529): > 100 µM (inactive)
- GI50 (DLD-1): > 100 µM (inactive)
- GI50 (DMS-114): > 100 µM (inactive)

SMILES: O=C1C2C3C=CC(C2C(=O)N1CN1CCOCC1)C1C2C(=O)N(CN4CCOCC4)C(=O)C2C31 (stereo not drawn)
- GI50 (KM-20L2): 27.4 µM (inactive)
- GI50 (DMS-273): 18.2 µM (inactive)
- GI50 (M19-MEL): 22.9 µM (inactive)
- GI50 (HOP-18): 22.1 µM (inactive)
- GI50 (RXF 631): 11.5 µM (inactive)
- GI50 (SNB-78): 32.9 µM (inactive)
- GI50 (LXFL 529): 19.6 µM (inactive)
- GI50 (DLD-1): 40.4 µM (inactive)
- GI50 (DMS-114): 16.2 µM (inactive)

SMILES: O=S(=O)(O)c1cc(/N=N/c2cc(S(=O)(=O)O)c3cccnc3c2O)ccc1/C=C/c1ccc(/N=N/c2cc(S(=O)(=O)O)c3cccnc3c2O)cc1S(=O)(=O)O
- GI50 (KM-20L2): > 66.5 µM (inactive)
- GI50 (DMS-273): > 100 µM (inactive)
- GI50 (M19-MEL): > 100 µM (inactive)
- GI50 (HOP-18): > 100 µM (inactive)
- GI50 (RXF 631): > 100 µM (inactive)
- GI50 (SNB-78): > 100 µM (inactive)
- GI50 (LXFL 529): > 100 µM (inactive)
- GI50 (DLD-1): > 100 µM (inactive)
- GI50 (DMS-114): > 100 µM (inactive)

SMILES: COc1cc(C2c3cc4c(cc3[C@@H](OCCN(C)C)C3COC(=O)[C@H]23)OCO4)cc(OC)c1O (stereo partly drawn)
- GI50 (KM-20L2): 0.855 µM (active)
- GI50 (DMS-273): 0.052 µM (active)
- GI50 (HOP-18): 0.42 µM (active)
- GI50 (RXF 631): 0.0655 µM (active)
- GI50 (SNB-78): 5.13 µM (inactive)
- GI50 (LXFL 529): 2.79 µM (inactive)
- GI50 (DLD-1): 1.03 µM (active)

SMILES: O=C1c2c(nc3ccccc3c2-c2ccccc2)CN1Nc1ccccc1
- GI50 (KM-20L2): > 100 µM (inactive)
- GI50 (M19-MEL): > 100 µM (inactive)
- GI50 (LXFL 529): > 100 µM (inactive)
- GI50 (DLD-1): > 100 µM (inactive)
- GI50 (DMS-114): > 100 µM (inactive)

SMILES: COc1ccc2nc(NC(=O)C(=O)NNC(=O)c3ccncc3)sc2c1
- GI50 (KM-20L2): > 100 µM (inactive)
- GI50 (M19-MEL): > 100 µM (inactive)
- GI50 (HOP-18): > 100 µM (inactive)
- GI50 (SNB-78): > 100 µM (inactive)
- GI50 (LXFL 529): > 100 µM (inactive)
- GI50 (DLD-1): > 100 µM (inactive)
- GI50 (DMS-114): > 100 µM (inactive)

SMILES: CCCCCCCCCc1cc(=O)c2ccc(O)cc2o1
- GI50 (KM-20L2): > 100 µM (inactive)
- GI50 (DMS-273): 46.8 µM (inactive)
- GI50 (M19-MEL): > 100 µM (inactive)
- GI50 (HOP-18): > 100 µM (inactive)
- GI50 (RXF 631): 46.2 µM (inactive)
- GI50 (SNB-78): 38.9 µM (inactive)
- GI50 (LXFL 529): 41.7 µM (inactive)
- GI50 (DLD-1): > 100 µM (inactive)
- GI50 (DMS-114): 11.3 µM (inactive)

SMILES: COc1c(Cl)c2c(c(OC)c1OC)-c1ccc(OC)c(=O)c(Cl)c1C(NC(C)=O)CC2 (stereo not drawn)
- GI50 (KM-20L2): 0.12 µM (active)
- GI50 (DMS-273): 0.116 µM (active)
- GI50 (M19-MEL): 0.262 µM (active)
- GI50 (RXF 631): 0.473 µM (active)
- GI50 (SNB-78): 0.36 µM (active)
- GI50 (LXFL 529): 0.243 µM (active)
- GI50 (DLD-1): 0.345 µM (active)
- GI50 (DMS-114): 0.224 µM (active)

SMILES: CC(C)N1C(C)[C@@H](c2ccccc2)O[P@@]1(=O)CC1=CCCCC1 (stereo partly drawn)
- GI50 (KM-20L2): > 100 µM (inactive)
- GI50 (M19-MEL): > 100 µM (inactive)
- GI50 (HOP-18): > 100 µM (inactive)
- GI50 (LXFL 529): > 100 µM (inactive)
- GI50 (DLD-1): > 100 µM (inactive)
- GI50 (DMS-114): 51.4 µM (inactive)

SMILES: COc1ccc(/C=C2/CCCC/C2=N/O)cc1
- GI50 (KM-20L2): > 100 µM (inactive)
- GI50 (DMS-273): 42.7 µM (inactive)
- GI50 (M19-MEL): > 100 µM (inactive)
- GI50 (HOP-18): > 100 µM (inactive)
- GI50 (RXF 631): > 100 µM (inactive)
- GI50 (SNB-78): 94.2 µM (inactive)
- GI50 (LXFL 529): 66.8 µM (inactive)
- GI50 (DLD-1): 67.5 µM (inactive)
- GI50 (DMS-114): 42.6 µM (inactive)

SMILES: CCCCN(C)CC(C(C)=O)C(c1ccccc1)c1c(O)c2ccccc2oc1=O (stereo not drawn)
- GI50 (KM-20L2): > 100 µM (inactive)
- GI50 (DMS-273): > 100 µM (inactive)
- GI50 (M19-MEL): > 100 µM (inactive)
- GI50 (HOP-18): > 100 µM (inactive)
- GI50 (SNB-78): > 100 µM (inactive)
- GI50 (LXFL 529): > 100 µM (inactive)
- GI50 (DLD-1): > 100 µM (inactive)
- GI50 (DMS-114): > 100 µM (inactive)

SMILES: CN1CCN(C)C12C=c1ccccc1=CC21CC1
- GI50 (KM-20L2): 27.3 µM (inactive)
- GI50 (DMS-273): 57 µM (inactive)
- GI50 (M19-MEL): 19.3 µM (inactive)
- GI50 (HOP-18): > 75 µM (inactive)
- GI50 (RXF 631): 53.6 µM (inactive)
- GI50 (SNB-78): > 72.4 µM (inactive)
- GI50 (LXFL 529): 17.1 µM (inactive)
- GI50 (DLD-1): 26.4 µM (inactive)
- GI50 (DMS-114): 18.2 µM (inactive)

SMILES: c1ccc2c(c1)C1CCCCCC21N1CCOCC1 (stereo not drawn)
- GI50 (KM-20L2): > 100 µM (inactive)
- GI50 (DMS-273): 67.1 µM (inactive)
- GI50 (M19-MEL): > 100 µM (inactive)
- GI50 (SNB-78): > 100 µM (inactive)
- GI50 (LXFL 529): 50 µM (inactive)
- GI50 (DLD-1): 84.5 µM (inactive)
- GI50 (DMS-114): 38.8 µM (inactive)
